What is called IC50 is the concentration needed to halve the response being measured.

30 compounds from patent US20180057505A1, “BICYCLIC HETEROARYL COMPOUNDS USEFUL AS INHIBITORS OF THE PAR-2 SIGNALING PATHWAY” (VERTEX PHARMACEUTICALS INCORPORATED, priority 2015, published 2018) can be followed below.

SMILES strings stand for the structures. Some results are limits rather than exact numbers.

Holding throughout (type): cell-based
Experiment [1] concerns the target T1, PAR2 (HT-29 cells) (Homo sapiens, UniProt P55085).
T1 construct: host or cells: HT-29
T1 sequence (P55085 26-397): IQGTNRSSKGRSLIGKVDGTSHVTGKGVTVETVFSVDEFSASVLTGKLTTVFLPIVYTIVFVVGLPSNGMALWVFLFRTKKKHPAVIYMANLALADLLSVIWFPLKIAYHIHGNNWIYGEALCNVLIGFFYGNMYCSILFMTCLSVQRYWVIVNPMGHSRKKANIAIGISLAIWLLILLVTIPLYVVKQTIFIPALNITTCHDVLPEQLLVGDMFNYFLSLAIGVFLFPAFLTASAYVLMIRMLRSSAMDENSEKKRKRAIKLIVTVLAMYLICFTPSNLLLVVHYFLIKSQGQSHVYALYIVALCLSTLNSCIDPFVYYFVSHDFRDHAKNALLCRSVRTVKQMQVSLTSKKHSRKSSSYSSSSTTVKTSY
Description: Ca FLIPR TETRA assay, ANTAGONIST mode, activator 8 μM SLIGKV. Conditions: HT-29 cells, activator 8 μM SLIGKV; maximal antagonist concentration per Method (A: 0.1, 1 or 2 μM; B: 50 μM). The procedure, abridged:
(§1)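 Antagonist-mode FLIPR Tetra Ca2+ read: dye-loaded HT-29 cells preincubated 30 min at r.t. with compound (first read checks agonism alone), then challenged with final 3.1 U/mL trypsin, 8 μM SLIGKV, 1 U/mL thrombin or 0.6 μM UTP. Cells plated overnight in 1% FBS McCoy's; Calcium 5 loading 45 min 37 °C plus 15 min r.t.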

In experiment [2] the target is T1, PAR2 (HT-29 cells). Kind of experiment: Ca FLIPR TETRA assay, ANTAGONIST mode, activator 3.1 U/mL trypsin. Conditions: HT-29 cells, activator 3.1 U/mL trypsin; maximal antagonist concentration per Method (A: 0.1, 1 or 2 μM; B: 50 μM). Summed up:
as §1

The test system of experiment [3] is Thrombin-stimulated Ca2+ response in HT-29 cells. Kind of experiment: Ca FLIPR TETRA assay, ANTAGONIST mode, activator 1 U/mL Thrombin. Conditions: HT-29 cells, activator 1 U/mL Thrombin. Summed up:
as §1

Experiment [4] relates to UTP-stimulated Ca2+ response in HT-29 cells. Description: Ca FLIPR TETRA assay, ANTAGONIST mode, activator 0.6 μM UTP. Conditions: HT-29 cells, activator 0.6 μM UTP. The procedure, abridged:
as §1

For `CC1(O)CC(C(=O)C2CCN(C(=O)c3cc4nc(-c5ccc(F)cc5)cc(C5(C#N)CC(F)(F)C5)c4o3)C(C)(C)C2)C1` (stereo not drawn) [Example I-204], the IC50 in experiment [1] is 6 nM; in experiment [2], 4 nM; in experiment [3] it was more than 1000 nM; in experiment [4] it was more than 1000 nM.
As for `CC1(C)CN(C(=O)C2CC(O)(C(F)(F)F)C2)CCN1C(=O)c1cc2nc(-c3ccc(F)cc3)cc(C3(C#N)CC(F)(F)C3)c2o1` (stereo not drawn) [Example I-205], the IC50 is 0.6 nM in experiment [1], 1 nM in experiment [2], more than 1000 nM in experiment [3] (Homo sapiens) and more than 1000 nM in experiment [4] (Homo sapiens).
Regarding `CN1CCN(C(=O)c2cc3nc(-c4ccc(F)cc4)cc(C(C)(C)C)c3o2)C(C)(C)C1=O` [Example I-206], the IC50 in experiment [1] is 4 nM; in experiment [2], 4 nM; in experiment [3] (Homo sapiens), more than 1000 nM; in experiment [4] (Homo sapiens) it was more than 1000 nM.
Turning to `CC(C)(C)c1cc(-c2ccc(F)cc2)nc2cc(C(=O)N3CCN(CC(=O)O)C(=O)C3(C)C)oc12` [Example I-209], the IC50 was 220 nM in experiment [1], 370 nM in experiment [2], more than 1000 nM in experiment [3] (Homo sapiens) and more than 1000 nM in experiment [4] (Homo sapiens).
As to `COCCN1CCN(C(=O)c2cc3nc(-c4ccc(F)cc4)cc(C(C)(C)C)c3o2)C(C)(C)C1=O` [Example I-210], the IC50 was 2 nM in experiment [1], 3 nM in experiment [2], more than 1500 nM in experiment [3] (Homo sapiens) and more than 1500 nM in experiment [4] (Homo sapiens).
On to `CC1(C)C(=O)NCCN1C(=O)c1cc2nc(-c3ccc(F)cc3)cc(C3CCCCC3)c2o1` [Example I-211], for which the IC50 is 7 nM in experiment [1], 17 nM in experiment [2], more than 2000 nM in experiment [3] (Homo sapiens) and more than 2000 nM in experiment [4] (Homo sapiens).
On to `CC1(C)C(=O)NCCN1C(=O)c1cc2nc(-c3ccc(F)cc3)cc(C3CCC(F)(F)CC3)c2o1` [Example I-212], for which the 50% inhibitory concentration (IC50) in experiment [1] is 13 nM; in experiment [2] it was 43 nM; in experiment [3] (Homo sapiens), more than 2000 nM; in experiment [4] (Homo sapiens), more than 2000 nM.
With `CC(C)(C)c1cc(-c2ccc(F)cc2)nc2cc(C(=O)N3CCN(C(=O)CCS(C)(=O)=O)CC3(C)C)oc12` [Example I-213], the IC50 in experiment [1] is 8 nM; in experiment [2], 53 nM; in experiment [3] (Homo sapiens), more than 2000 nM; in experiment [4] (Homo sapiens), more than 2000 nM.
In the case of `CC(C)(C)c1cc(C2CCCCCC2)nc2cc(C(=O)N3CCNC(=O)C3(C)C)oc12` [Example I-214], the IC50 in experiment [1] is 27 nM; in experiment [2], 26 nM; in experiment [3] (Homo sapiens), more than 1000 nM; in experiment [4] (Homo sapiens) it was more than 1000 nM.
On to `CC(C)(C)c1cc(C2CCCC2)nc2cc(C(=O)N3CCNC(=O)C3(C)C)oc12` [Example I-215], for which the IC50 in experiment [1] is 96 nM; in experiment [2] it was 300 nM; in experiment [3] (Homo sapiens), more than 1000 nM; in experiment [4] (Homo sapiens), more than 1000 nM.
As to `CC(C)(C)c1cc(C2CCC(F)(F)CC2)nc2cc(C(=O)N3CCNC(=O)C3(C)C)oc12` [Example I-216], the IC50 in experiment [1] was 68 nM; in experiment [2], 240 nM; in experiment [3] (Homo sapiens), more than 1000 nM; in experiment [4] (Homo sapiens), more than 1000 nM.
In the case of `CC1(C)CCC(c2cc(C(C)(C)C)c3oc(C(=O)N4CCNC(=O)C4(C)C)cc3n2)CC1` [Example I-217, 4-[7-tert-butyl-5-(4,4-dimethylcyclohexyl)furo[3,2-b]pyridine-2-carbonyl]-3,3-dimethyl-piperazin-2-one], the IC50 in experiment [1] is 13 nM; in experiment [2] it was 22 nM; in experiment [3] (Homo sapiens) it was more than 2000 nM; in experiment [4] (Homo sapiens) it was more than 2000 nM.
Regarding `CC(C)(C)c1cc(C2CCC(Cl)(Cl)CC2)nc2cc(C(=O)N3CCNC(=O)C3(C)C)oc12` [Example I-218], the IC50 is 36 nM in experiment [1], 44 nM in experiment [2], more than 2000 nM in experiment [3] (Homo sapiens) and more than 2000 nM in experiment [4] (Homo sapiens).
On to `CNS(=O)(=O)CC(=O)N1CCN(C(=O)c2cc3nc(C4CCC(F)(F)CC4)cc(C(C)(C)C)c3o2)C(C)(C)C1=O` [Example I-219], for which the IC50 is 39 nM in experiment [1], 50 nM in experiment [2], more than 2000 nM in experiment [3] and more than 2000 nM in experiment [4].
On to `CC(C)(C)c1cc(C2CCC(F)(F)CC2)nc2cc(C(=O)N3CCN(C(=O)[C@H]4CC[C@@](C)(C(=O)O)CC4)C(=O)C3(C)C)oc12` [Example I-220], for which the IC50 in experiment [1] was 6.7 nM; in experiment [2], 13 nM; in experiment [3], more than 2000 nM; in experiment [4] it was more than 2000 nM.
Take `Cc1nc(C(=O)N2CCN(C(=O)c3cc4nc(C5CCC(F)(F)CC5)cc(C(C)(C)C)c4o3)C(C)(C)C2=O)n[nH]1` [Example I-221]: the IC50 in experiment [1] is 32 nM; in experiment [2], 58 nM; in experiment [3] it was more than 2000 nM; in experiment [4] it was more than 2000 nM.
With `CC(C)(C)c1cc(C2CCC(F)(F)CC2)nc2cc(C(=O)N3CCN(C(=O)CNS(C)(=O)=O)C(=O)C3(C)C)oc12` [Example I-222], the IC50 in experiment [1] was 275 nM; in experiment [2], 730 nM; in experiment [3] it was more than 2000 nM; in experiment [4], more than 2000 nM.
In the case of `Cc1cc(C(=O)N2CCN(C(=O)c3cc4nc(C5CCC(F)(F)CC5)cc(C(C)(C)C)c4o3)C(C)(C)C2=O)[nH]n1` [Example I-223], the IC50 in experiment [1] was 13.8 nM; in experiment [2] it was 39 nM; in experiment [3], more than 2000 nM; in experiment [4], more than 2000 nM.
As for `CC(C)(C)c1cc(C2CCC(F)(F)CC2)nc2cc(C(=O)N3CCN(C(=O)C4CC(O)(C(F)(F)F)C4)C(=O)C3(C)C)oc12` (stereo not drawn) [Example I-224], the concentration for half-maximal inhibition (IC50) is 2.3 nM in experiment [1], 3.3 nM in experiment [2], more than 2000 nM in experiment [3] and more than 2000 nM in experiment [4].
As to `CC(C)(C)c1cc(C2CCC(F)(F)CC2)nc2cc(C(=O)N3CCN(C(=O)[C@H]4CC[C@@H](O)CC4)CC3(C)C)oc12` [Example I-225], the IC50 in experiment [1] is 13 nM; in experiment [2] it was 24 nM; in experiment [3] (Homo sapiens) it was more than 2000 nM; in experiment [4] (Homo sapiens), more than 2000 nM.
Take `CNS(=O)(=O)CCC(=O)N1CCN(C(=O)c2cc3nc(C4CCC(F)(F)CC4)cc(C(C)(C)C)c3o2)C(C)(C)C1` [Example I-226]: the IC50 was 76 nM in experiment [1], 230 nM in experiment [2], more than 2000 nM in experiment [3] (Homo sapiens) and more than 2000 nM in experiment [4] (Homo sapiens).
`Cc1n[nH]c(C(=O)N2CCN(C(=O)c3cc4nc(C5CCC(C)(C)CC5)cc(C(C)(C)C)c4o3)C(C)(C)C2)n1` [Example I-227]: the IC50 in experiment [1] was 0.8 nM; in experiment [2], 1.2 nM; in experiment [3] (Homo sapiens), more than 2000 nM; in experiment [4] (Homo sapiens), more than 2000 nM.
`CC1(C)CCC(c2cc(C(C)(C)C)c3oc(C(=O)N4CCN(C(=O)[C@H]5C[C@@](C)(O)C5)CC4(C)C)cc3n2)CC1` [Example I-228]: the IC50 in experiment [1] is 0.9 nM; in experiment [2] it was 1.4 nM; in experiment [3] (Homo sapiens), more than 2000 nM; in experiment [4] (Homo sapiens) it was more than 2000 nM.
`CC(C)(C)c1cc(C2CCC(F)(F)CC2)nc2cc(C(=O)N3CCN(C(=O)[C@H]4CC[C@@H](C(=O)O)CC4)CC3(C)C)oc12` [Example I-229]: the IC50 in experiment [1] was 24 nM; in experiment [2] it was 28 nM; in experiment [3] (Homo sapiens), more than 2000 nM; in experiment [4] (Homo sapiens), more than 2000 nM.
On to `CC(C)(C)c1cc(C2CCC(F)(F)CC2)nc2cc(C(=O)N3CCN(C(=O)c4cnccn4)CC3(C)C)oc12` [Example I-230], for which the IC50 is 81 nM in experiment [1], 150 nM in experiment [2], more than 2000 nM in experiment [3] (Homo sapiens) and more than 2000 nM in experiment [4] (Homo sapiens).
Regarding `CC(C)(C)c1cc(C2CCC(F)(F)CC2)nc2cc(C(=O)N3CCN(C(=O)c4ncccn4)CC3(C)C)oc12` [Example I-231], the IC50 is 84 nM in experiment [1], 160 nM in experiment [2], more than 2000 nM in experiment [3] (Homo sapiens) and more than 2000 nM in experiment [4] (Homo sapiens).
For the compound `CC(C)(C)c1cc(C2CCC(F)(F)CC2)nc2cc(C(=O)N3CCN(C(=O)CCS(C)(=O)=O)CC3(C)C)oc12` [Example I-232], the IC50 in experiment [1] was 215 nM; in experiment [2], 200 nM; in experiment [3] (Homo sapiens), more than 2000 nM; in experiment [4] (Homo sapiens), more than 2000 nM.
On to `CCC(CC)c1cc(-c2ccc(F)cc2)nc2cc(C(=O)N3CCNC(=O)C3(C)C)oc12` [Example I-233], for which the IC50 in experiment [1] was 6.2 nM; in experiment [2], 8.1 nM; in experiment [3] (Homo sapiens) it was more than 2000 nM; in experiment [4] (Homo sapiens), more than 2000 nM.
With `CC(C)(C)c1cc(C2CCC(F)(F)CC2)nc2cc(C(=O)N3CCN(C(=O)[C@H]4C[C@@](C)(O)C4)CC3(C)C)oc12` [Example I-234], the IC50 in experiment [1] was 22 nM; in experiment [2], 38 nM; in experiment [3] (Homo sapiens), more than 2000 nM; in experiment [4] (Homo sapiens), more than 2000 nM.
For `CC(C)(C)c1cc(-c2ccc(F)cc2)nc2cc(C(=O)N3CCN(c4ccn[nH]4)C(=O)C3(C)C)oc12` [Example I-235], the IC50 in experiment [1] was 5.6 nM; in experiment [2] it was 9.4 nM; in experiment [3] (Homo sapiens) it was more than 2000 nM; in experiment [4] (Homo sapiens), more than 2000 nM.
